Where “and” joins values, the source holds several entries; their conditions need not be identical. Equal values may be shown once. Read-outs that look alike come from different tables or passages of the source.
Key:
[1] = molecular target: T1, human NMT1 (HsNMT1) (Homo sapiens, UniProt P30419); assay: HsNMT1 IC50, fluorescence-based assay detecting CoA with CPM; assay type: biochemical
T1 sequence (P30419 1-496): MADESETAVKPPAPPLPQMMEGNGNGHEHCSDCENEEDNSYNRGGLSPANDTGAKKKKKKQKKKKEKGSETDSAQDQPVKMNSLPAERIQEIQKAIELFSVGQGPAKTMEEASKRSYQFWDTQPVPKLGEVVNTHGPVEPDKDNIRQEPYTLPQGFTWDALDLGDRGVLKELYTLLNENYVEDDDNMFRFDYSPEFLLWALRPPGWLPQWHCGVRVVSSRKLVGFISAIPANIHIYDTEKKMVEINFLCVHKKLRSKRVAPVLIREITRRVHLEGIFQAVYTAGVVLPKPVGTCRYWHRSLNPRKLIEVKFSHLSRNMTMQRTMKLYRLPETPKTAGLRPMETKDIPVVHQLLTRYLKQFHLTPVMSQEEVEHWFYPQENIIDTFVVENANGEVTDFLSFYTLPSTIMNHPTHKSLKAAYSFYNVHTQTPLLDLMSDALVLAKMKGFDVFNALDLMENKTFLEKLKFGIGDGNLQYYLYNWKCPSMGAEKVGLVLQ
Description: The IC50 values for human NMT1 (HsNMT1) of four Example compounds of the invention described above (Examples 1-4) and six comparative examples (Comparative Examples 1, 2, 3, 4, 5 and 6) were measured using a sensitive fluorescence-based assay based on detection of CoA by 7-diethylamino-3-(4-maleimido-phenyl)-4-methylcoumarin, as described in Goncalves, V., et al., Analytical Biochemistry, 2012, 421, 342-344 and Goncalves, V., et al., J. Med. Chem, 2012, 55, 3578.

[2] = Human liver microsomes half life; assay type: in vitro ADME; conditions: pH 7.4, read-out: Human liver microsomes t ½
Description: Example Compound 1 was tested for metabolic stability in an assay using human liver microsomes. Comparative Examples 2, 3, 4, 5 and 6 were also tested in the same assay. Compounds having good metabolic stability in the assay are expected to be especially useful as agents for preventing and/or treating cancer, by having a long half-life in human patients
Frozen human liver microsomes obtained from Corning, USA (cat #452117) were thawed and diluted with 100 mM of pH 7.4 phosphate buffer to give a 1 mg/ml solution. An NADPH regeneration system (NRS) was prepared as a solution containing 13 mM NADP, 33 mM glucose-6-phosphate, 33 mM MgCl2 and 4U/mL glucose-6-phosphate dehydrogenase in 100 mM of pH7.4 phosphate buffer. The test compound (4 mM) in DMSO was diluted with acetonitrile to provide a 100 μM sub-stock then further diluted with 100 mM of pH7.4 phosphate buffer to provide a 2 μM working solution. The liver microsome solution and NRS were incubated at 37° C. before use. To each well of the test plate was dispensed 60 μL of buffer, 50 μL of test compound solution and 10 μL of NRS. A reaction was initiated by addition of 40 μL of liver microsome solution. Wells were incubated for an appropriate time (0, 5, 10, 20, 30 and 60 min) then quenched with 300 μL of acetonitrile containing reference standards atenolol, propranolol, diclofenac, verapamil). All plates were centrifuged at 3500 rpm for 20 min at 15° C. to pellet the debris. 110 μL supernatant was diluted 110 μL water and quantitated using LC-MS/MS.
The results were used to calculate the % Remaining of the test compound at time point t=100×˜[(AUC at time point t)/(AUC at T=0)]. A linear regression curve was fitted to a plot of natural logarithm (In) of AUC against time. The T-half (min)=0.693/slope.

[3] = tested on: MDA MB 231 cells; assay: CellTiter-Blue assay, MDA MB 231; assay type: cell-based, human
Description: (§1) Example NMT inhibitors of the present invention were tested for activity in in vitro CellTiter-Blue® assays using the human cell line MDA MB 231, LY 12318, or BL-41. Comparative Examples 1 and 2 were also tested in the same assays. Compounds having activity in inhibiting metabolic activity in the assay are expected to be useful as agents for preventing and/or treating cancer, by virtue of being inhibitors of human NMT1 and/or NMT2.
(§2) MDA MB 231 cells (obtained from Professor Eric Aboagye, Hammersmith Hospital; cell type: triple negative breast cancer) were grown in low glucose DMEM in 5% CO2 media (supplemented with 10% FBS); LY 12318 cells (obtained from Dr Martin Janz, Max Delbrueck Center; cell type: B cell lymphoma patient derived xenograft) were grown in DMEM media (supplemented with 10% FBS); and BL-41 cells (obtained from Cell Services at the Crick Institute; cell type: Burkitt's Lymphoma) were grown in RPMI-1640 media in 5% CO2 (supplemented with 10% FBS). The MDA MB 231 cells, LY 12318 cells or BL-41 cells were seeded in 96-well plates, 24 h prior to treatment. Cell suspensions were prepared by adjusting the cell density to the appropriate concentration (as stated in the Table 2 below) and 50 μL of the cell suspension was transferred to wells B-G in columns 2-11 of a 96-well plate.
(§3) Twenty-four hours later, 50 μl of growth media (low glucose DMEM in 5% CO2 media supplemented with 10% FBS for MDA MB 231 cells; DMEM media in 5% CO2 supplemented with 10% FBS for LY 12318 cells; or RPMI-1640 media supplemented with 10% FBS for BL-41 cells) containing 0.0004% DMSO (positive control), a mix of Puromycin and Staurosporine (negative controls, final concentration 2 μg/mL and 1 μM respectively) or different concentrations of each Example (Example 1 and 2) or each Comparative Example (Comparative Example 1 and 2) (dilution factor=3, starting at […], final concentration in the plate starting from 10 μM) were prepared and added to a well of the 96-well plate. The plate was incubated at 37° C. with 5% CO2 level.
(§4) 72 hours later, 20 μl/well CellTiter-Blue® (G8081, Promega) were added to the plates according to the manufacturer's protocol, the plate was incubated at 37° C. for 4 h for MDA MB 231 cells and BL-41 cells, or 3 h for LY 12318 cells, followed by measuring the absorbance per well at 570 nm using an EnVision plate reader. The negative control values were subtracted from every value. The metabolic activity was calculated as a percentage relative to the positive control. The EC50 values were calculated using GraphPad Prism.

[4] = tested on: LY 12318 cells; assay: CellTiter-Blue assay, LY 12318; assay type: cell-based, human; conditions: 72 h, read-out: LY12318 EC50
Description: as §1, §2, §3, §4

[5] = tested on: BL-41 cells; assay: CellTiter-Blue assay, BL-41; assay type: cell-based, human
Description: as §1, §2, §3, §4

IC50 [1] | half-life at 0.625 µM [2] | Compound | EC50 ([3]; 72 h) | EC50 [4] | EC50 ([5]; 72 h) | EC50 ([3]; Homo sapiens, MDA-MB-231, 72 h) | EC50 ([4]; Homo sapiens) | EC50 ([5]; Homo sapiens, BL-41, 72 h)
10.5 nM | 0.617 h | CNCCc1cnc2ccc(-c3ccc(F)cc3OCCc3c(C)nn(C)c3C)cn12 [Comparative Example 3, [2-(6-{4-fluoro-2-[2-(1,3,5-trimethyl-1H-pyrazol-4-yl)ethoxy]phenyl}imidazo[1,2-a]pyridin-3-yl)ethyl](methyl)amine] | – | – | – | – | – | –
– | 1.12 h | Cc1c(CCOc2cc(Cl)ccc2-c2ccc3ncc(CCN)n3c2)c(C(=O)N(C)C)nn1C [Example Compound 1, 4-(2-{2-[3-(2-aminoethyl)imidazo[1,2-a]pyridin-6-yl]-5-chlorophenoxy}ethyl)-N,N,1,5-tetramethyl-1H-pyrazole-3-carboxamide] | 20 nM | 27 nM | 14 nM | – | – | –
~1 nM and 1 nM | 1.95 h | CNC(=O)c1nn(C)c(C)c1CCOc1cc(F)ccc1-c1ccc2ncc(CCN)n2c1 [Comparative Example 2, 4-(2-{2-[3-(2-aminoethyl)imidazo[1,2-a]pyridin-6-yl]-5-fluorophenoxy}ethyl)-N,1,5-trimethyl-1H-pyrazole-3-carboxamide] | – | – | – | 237 nM | > 370 nM | 298 nM
